Patent US7312358B2, “Pharmaceutically active sulfanilide derivatives” (Laboratoires Serono SA, priority 2000, dated 2007)

Molecular target: hV1a (Homo sapiens, UniProt P37288)
Test: In vitro competition binding assay on hV1a receptor with scintillating proximity assay
Parameters: expressed in transfected cells; host or cells: CHO cells (membranes)
Details: membranes from CHO cells expressing hV1a receptor; radiolabel [125I]-LVA; SPA; read-out: Binding Affinity Human V1a Ki
Experimental: b) In Vitro Competition Binding Assay on hV1a Receptor with Scintillating Proximity Assay
This assays allows to determine the affinity of the test compounds for the V1a receptor. Membranes from CHO cells expressing the hV1a receptor were resuspended in buffer containing 50 mM Tris-HCl, pH 7.4, 5 mM MgCl2 and 0.1% BSA (w/v). The membranes (5-10 μg) were mixed with 0.2 mg wheat-germ aglutinin (WGA) SPA bead (type A) and 0.03 nM of the radiolabel [^125I]-LVA (LVA being Linear Vasopressin Antagonist and is an analogue of AVP for competition binding experiments). Non-specific binding was determined in the presence of 1 μM AVP. The total assay volume was 100 μl. The plates (Corning 0 NBS plate) were incubated at room temperature for 2 hours and counted on a Mibrobeta plate counter. The tests compounds were used in concentrations of 30 μM, 10 μM, 1 μM, 300 nM, 100 nM, 10 nM, 1 nM, 100 pM, 10 pM. The competition binding data were analysed using the iterative, nonlinear, curve-fitting program, Graph pad “Prism”.
The binding affinities to the Via receptor of the sulfanilide derivatives claimed in the formula I were assessed using the above described in vitro biological assay. The values refer to the binding affinity (IC50; HM) of the example compounds according to formula I to the V1a receptor. From the values shown in Table 1 it can be derived that said test compounds according to formula I do show a significant binding to the Via receptor.

Chain of hV1a (P37288 whole entry): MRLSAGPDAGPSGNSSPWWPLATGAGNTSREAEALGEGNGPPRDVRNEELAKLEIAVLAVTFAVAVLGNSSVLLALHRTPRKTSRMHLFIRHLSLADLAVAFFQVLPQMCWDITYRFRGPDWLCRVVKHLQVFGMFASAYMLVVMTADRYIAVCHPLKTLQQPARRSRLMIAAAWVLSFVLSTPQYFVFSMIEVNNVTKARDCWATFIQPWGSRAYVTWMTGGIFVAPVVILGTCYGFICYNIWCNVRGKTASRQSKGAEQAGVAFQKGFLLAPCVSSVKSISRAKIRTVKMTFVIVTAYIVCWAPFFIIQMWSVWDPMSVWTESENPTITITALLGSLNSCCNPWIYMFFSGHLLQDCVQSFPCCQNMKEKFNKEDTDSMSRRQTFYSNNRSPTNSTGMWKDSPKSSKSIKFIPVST

CCOc1ccc(S(=O)(=O)N(CC(=O)N/N=C2/C(=O)Nc3ccccc32)c2ccc(C)cc2)cc1 [Example 5, 4-ethoxy-N-(4-methylphenyl)-N-{2-oxo-2-[2-(2-oxo-1,2-dihydro-3H-indol-3-ylidene)hydrazino]ethyl}benzenesulfonamide]
Ki: 750 nM
